Experimental data as given in publication PMC7531601, “Exploiting Lactoferricin (17–30) as a Potential Antimicrobial and Antibiofilm Candidate Against Multi-Drug-Resistant Enteroaggregative Escherichia coli” (Frontiers in Microbiology, 2020).
Ends that are not written are not given here.

Test system: G. mellonella larvae
Assay: LDH cytotoxicity assay of larval haemolymph
Type: in vivo, Galleria mellonella
Method: Galleria mellonella larvae were grouped 40 per group for in vivo antimicrobial testing of Lfcin (17–30) as follows: group I (MDR-EAEC infection control), groups II and III (infection + treatment groups), group IV (PBS control), and group V [Lfcin(17–30) control]. Optimized LD50 dose of MDR-EAEC (a cocktail of three strains) was administered to larvae of groups I to III, while MIC dose of Lfcin (17–30) and Meropenem was administered 3 h post-infection (pi) in groups II and III, respectively. Larval group IV was injected with sterile PBS, whereas MIC dose of Lfcin (17–30) was administered in group V.
The larvae were then observed for their survival rate, melanization (Supplementary Information S7), MDR-EAEC counts (Supplementary Information S8), hemocyte density (Supplementary Information S9) ([Wand et al., 2013]), lactate dehydrogenase (LDH) cytotoxicity assay (Supplementary Information S10) ([Gibreel and Upton, 2013]), and histopathology (Supplementary Information S11) ([Perdoni et al., 2014]), at an interval of 6 h till 24 h, followed by 24-h interval up to 120 h pi.
G. mellonella (n=3 larvae per group) were analysed for the production of LDH, as a marker of cell damage, at an interval of 6 h pi for 24 h, followed by 24 h interval till 96 h pi using QuantiChrom LDH cytotoxicity assay kit, according to the manufacturer’s instructions. The positive and negative controls used in this study were […]. The absorbance was read using ELISA plate reader at 500 nm; the haemolymph from untreated larvae served as background control and the cytotoxicity was calculated as, Cytotoxicity (%) = (ODSample - ODControl)/ (ODTotal Lysis - ODControl) x 100, wherein, sample is the control absorbance of treated cell; control is the experimental absorbance of the untreated cell control and total lysis is the absorbance of Triton X-100 treated cells.

**Q.** For FKCRRWQWRMKKLG [Lfcin (17–30)], which LDH cytotoxicity (infected larvae treated 3 h pi) is on record?
**A.** cytotoxicity remained increased up to 48 h pi

**Q.** What about the LDH cytotoxicity (uninoculated larvae treated with MIC dose) of the same sequence?
**A.** significantly increased cytotoxicity was observed at 6 to 18 h pi
